Assay results: patent publication US20020156277A1, “Synthesis and methods of use of purine analogues and derivatives” (priority 2001, published 2002)

Test system: mice
Assay: Passive avoidance test (block of cycloheximide-induced amnesia)
Type: in vivo
Conditions: Mus musculus, 2 h, intraperitoneal administration two hours prior to training, amnestic agent 30 mg/kg cycloheximide i.p., read-out: minimum effective dose (MED)
Protocol: Passive avoidance is an acute memory paradigm in which mice are allowed to enter a dark compartment from a lighted compartment, but are given a footshock (2 mA for 5 seconds) when they enter the dark compartment. […] If an amnestic agent (30 mg/kg cycloheximide i.p. in saline) immediately after the training session is given to the animals, they will make the transition into the dark compartment (i.e., memory of the shock is lost). Compounds with suspected nootropic or anti-amnestic effects are given by i.p. administration two hours prior to the training trial in attempt to block the effects of cycloheximide. […] This behavioral response is defined as passive avoidance. A no effect response in this test is defined as a failure to stay in the lighted compartment for 120 seconds.

| SMILES | minimal effective dose [mg/kg] |
| --- | --- |
| CCOC(=O)c1ccc(NC(=O)C(C)n2cnc3c(=O)[nH]c(-c4ccccc4)nc32)cc1 (stereo not drawn) [Example 11, 4-[2-(6-oxo-2-phenyl-1,6-dihydropurin-9-yl)propionylamino]benzoic acid ethyl ester] | 10 |
| CCOC(=O)c1ccc(NC(=O)CCn2cnc3c(=O)n(CCN(C)C)cnc32)cc1 [Example 4, 4-[3-(1-(2-dimethylaminoethyl)-6-oxo-1,6-dihydropurin-9-yl)propionylamino]benzoic acid ethyl ester] | 1 |
| CCOC(=O)c1ccc(NC(=O)CCn2cnc3c(=O)n(Cc4ccccc4)cnc32)cc1 [Example 1, 4-[3-(1-benzyl-6-oxo-1,6-dihydropurin-9-yl)propionylamino]benzoic acid ethyl ester] | 0.0003 |
| CCOC(=O)c1ccc(NC(=O)C(C)n2cnc3c(=O)[nH]c(=S)[nH]c32)cc1 (stereo not drawn) [Example 9, 4-[2-(6-oxo-2-thioxo-1,2,3,6-tetrahydropurin-9-yl)propionylamino]benzoic acid ethyl ester] | 0.0001 |
| O=C(CCn1cnc2c(=O)n(Cc3ccccc3)cnc21)NCCNC(=O)CN1CCCC1=O [Example 14, 3-(1-benzyl-6-oxo-1,6-dihydropurin-9-yl)-N-{2-[2-(2-oxopyrrolidin-1-yl)acetylamino]ethyl}propionamide] | 1 |
| CCCCc1nc2c(ncn2C(C)C(=O)Nc2ccc(C(=O)OCC)cc2)c(=O)[nH]1 (stereo not drawn) [Example 10, 4-[2-(2-butyl-6-oxo-1,6-dihydropurin-9-yl)propionylamino]benzoic acid ethyl ester] | 0.1 |
| CCOC(=O)c1ccc(NC(=O)CCn2cnc3c(=O)[nH]c(=O)[nH]c32)cc1 [Example 5, 4-[3-(2,6-dioxo-1,2,3,6-tetrahydropurin-9-yl)propionylamino]benzoic acid ethyl ester] | 0.001 |
| COC(=O)c1ccc(N(C)C(=O)CCn2cnc3c(Cl)ncnc32)cc1 [Example 12, 4-{[3-(6-chloropurin-9-yl)propionyl]methylamino}benzoic acid methyl ester] | 0.0001 |
| CCOC(=O)c1ccc(NC(=O)CCn2cnc3c(=O)n(C)cnc32)cc1 [Example 3, 4-[3-(1-methyl-6-oxo-1,6-dihydropurin-9-yl)propionylamino]benzoic acid ethyl ester] | 0.1 |
| O=C(CCn1cnc2c(=O)n(Cc3ccccc3)cnc21)NCCCN1CCCC1=O [Example 13, 3-(1-benzyl-6-oxo-1,6-dihydropurin-9-yl)-N-[3-(2-oxopyrrolidin-1-yl)propyl]propionamide] | 1 |
| CCOC(=O)c1ccc(NC(=O)CCn2cnc3c(N(C)C)ncnc32)cc1 [Example 7, 4-[3-(6-dimethylaminopurin-9-yl)propionylamino]benzoic acid ethyl ester] | 0.01 |
| CCOC(=O)c1ccc(NC(=O)CCn2cnc3c(Cl)nc(N)nc32)cc1 [Example 8, 4-[3-(2-amino-6-chloropurin-9-yl)propionylamino]benzoic acid ethyl ester] | 0.01 |
| CCCCn1cnc2c(ncn2CCC(=O)Nc2ccc(C(=O)OCC)cc2)c1=O [Example 2, 4-[3-(1-butyl-6-oxo-1,6-dihydropurin-9-yl)propionylamino]benzoic acid ethyl ester] | 0.001 |

Test system: mice
Assay: as above
Type: in vivo
Conditions: Mus musculus, oral administration, amnestic agent 30 mg/kg cycloheximide i.p., read-out: minimum effective dose (MED)

| SMILES | minimal effective dose [mg/kg] |
| --- | --- |
| CCOC(=O)c1ccc(NC(=O)CCn2cnc3c(=O)n(Cc4ccccc4)cnc32)cc1 [Example 1, 4-[3-(1-benzyl-6-oxo-1,6-dihydropurin-9-yl)propionylamino]benzoic acid ethyl ester] | 0.01 |
| CCOC(=O)c1ccc(NC(=O)C(C)n2cnc3c(=O)[nH]c(=S)[nH]c32)cc1 (stereo not drawn) [Example 9, 4-[2-(6-oxo-2-thioxo-1,2,3,6-tetrahydropurin-9-yl)propionylamino]benzoic acid ethyl ester] | 0.001 |
